Measurements taken from ChEMBL document CHEMBL2216752, “Carnitine palmitoyltransferase (CPT) modulators: a medicinal chemistry perspective on 35 years of research” (J Med Chem, 2011).

How the values were obtained:
Rattus norvegicus [1] = experiment: Toxicity in rat assessed as induction of heart muscle enlargement at 200 mg/kg/day for 12 weeks administered through food admix; assay type: organism-based, Muscle tissue; conditions: in vivo, 2016 h
[2] = molecular target: T1, Carnitine O-palmitoyltransferase 1, liver isoform (Homo sapiens, UniProt P50416); experiment: Inhibition of human CPT1A expressed in Saccharomyces cerevisiae mitochondria assessed as palmitoylcarnitine by HPLC method
T1 sequence (P50416 whole entry): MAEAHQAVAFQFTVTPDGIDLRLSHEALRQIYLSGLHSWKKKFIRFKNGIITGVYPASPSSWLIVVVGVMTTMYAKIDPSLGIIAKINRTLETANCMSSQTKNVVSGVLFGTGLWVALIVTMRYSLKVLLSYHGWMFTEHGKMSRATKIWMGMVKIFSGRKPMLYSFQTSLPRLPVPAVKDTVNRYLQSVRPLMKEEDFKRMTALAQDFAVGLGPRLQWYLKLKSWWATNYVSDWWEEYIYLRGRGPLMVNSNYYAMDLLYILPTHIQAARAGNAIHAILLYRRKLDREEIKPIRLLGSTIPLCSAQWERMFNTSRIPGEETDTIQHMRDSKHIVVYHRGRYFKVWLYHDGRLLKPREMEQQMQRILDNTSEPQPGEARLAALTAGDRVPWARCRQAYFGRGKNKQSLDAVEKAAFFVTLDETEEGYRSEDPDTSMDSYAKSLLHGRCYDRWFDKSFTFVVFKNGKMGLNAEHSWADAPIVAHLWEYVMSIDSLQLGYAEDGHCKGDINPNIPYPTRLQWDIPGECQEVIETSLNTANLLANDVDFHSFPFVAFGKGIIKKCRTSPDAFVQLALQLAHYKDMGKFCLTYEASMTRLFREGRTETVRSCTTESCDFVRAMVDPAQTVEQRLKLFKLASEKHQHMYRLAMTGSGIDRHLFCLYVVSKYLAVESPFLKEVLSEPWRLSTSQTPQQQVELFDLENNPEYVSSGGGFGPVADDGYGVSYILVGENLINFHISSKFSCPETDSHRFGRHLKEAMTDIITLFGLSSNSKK

[3] = molecular target: Carnitine O-palmitoyltransferase 1, muscle isoform (Rattus norvegicus) (UniProt Q63704); experiment: Maximal inhibition of CPT1B in rat muscle mitochondria; conditions: Muscle tissue
Carnitine O-palmitoyltransferase 1, muscle isoform (Rattus norvegicus), sequence (Q63704 whole entry, canonical isoform): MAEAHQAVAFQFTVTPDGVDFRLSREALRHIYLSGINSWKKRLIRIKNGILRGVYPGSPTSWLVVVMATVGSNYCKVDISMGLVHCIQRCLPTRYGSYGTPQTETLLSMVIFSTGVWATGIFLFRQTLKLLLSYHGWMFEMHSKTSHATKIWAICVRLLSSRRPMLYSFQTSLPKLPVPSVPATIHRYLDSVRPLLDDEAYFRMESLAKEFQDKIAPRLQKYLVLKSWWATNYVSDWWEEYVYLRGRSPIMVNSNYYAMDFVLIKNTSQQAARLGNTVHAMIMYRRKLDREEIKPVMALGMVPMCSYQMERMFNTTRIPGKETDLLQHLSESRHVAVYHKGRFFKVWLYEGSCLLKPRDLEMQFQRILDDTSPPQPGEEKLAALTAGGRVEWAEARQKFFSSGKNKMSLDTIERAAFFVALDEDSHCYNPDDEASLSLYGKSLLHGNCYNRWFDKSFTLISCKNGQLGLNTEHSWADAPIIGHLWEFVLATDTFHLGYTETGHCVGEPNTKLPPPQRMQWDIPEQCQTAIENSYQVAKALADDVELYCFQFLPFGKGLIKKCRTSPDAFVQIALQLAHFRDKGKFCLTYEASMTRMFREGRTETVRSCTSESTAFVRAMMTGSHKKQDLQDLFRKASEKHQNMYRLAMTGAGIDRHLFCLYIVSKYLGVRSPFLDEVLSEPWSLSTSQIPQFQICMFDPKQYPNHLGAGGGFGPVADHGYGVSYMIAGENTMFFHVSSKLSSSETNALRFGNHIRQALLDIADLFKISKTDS

[4] = molecular target: Carnitine O-palmitoyltransferase 1, liver isoform (Rattus norvegicus) (UniProt P32198); experiment: Maximal inhibition of CPT1A in rat liver mitochondria
[5] = Inhibition of rat FAO
[6] = Inhibition of human FAO
Sus scrofa = species: Sus scrofa; experiment: Increase in glucose metabolic clearance rate in pig using [U14C,3-3H]glucose; assay type: functional
[7] = Inhibition of carnitine palmitoyltransferase in rat heart mitochondria assessed as conversion of [14C]palmitic acid to [14C]palmitoylcarnitine by radiometric assay
[8] = Inhibition of carnitine palmitoyltransferase in rat liver mitochondria assessed as conversion of [14C]palmitic acid to [14C]palmitoylcarnitine by radiometric assay
Rattus norvegicus [9] = experiment: Reduction in KB level po dosed 24 hrs fasted rat measured 6 hrs post dose; assay type: functional
[10] = Competitive inhibition of carnitine palmitoyltransferase using palmitoyl-CoA
Mus musculus [11] = experiment: Reduction in serum glucose level db/db mouse at 100 mg/kg/day for 30 days; assay type: functional; parameters: scale not given: the % may be the effect or the level left
[12] = Toxicity in po dosed Sprague-Dawley rat assessed as hypoglycemic coma; assay type: organism-based; conditions: in vivo
Rattus norvegicus [13] = experiment: Reduction in blood glucose in po dosed Sprague-Dawley rat; assay type: functional
Rattus norvegicus [14] = experiment: Reduction in blood glucose in Sprague-Dawley rat at 600 umol/kg, po; assay type: functional; parameters: scale not given: the % may be the effect or the level left
[15] = Critical micelle concentration of compound; assay type: physicochemical
[16] = molecular target: T2, Carnitine O-palmitoyltransferase 2, mitochondrial (Homo sapiens, UniProt P23786); experiment: Inhibition of human CPT2
T2 sequence (P23786 whole entry): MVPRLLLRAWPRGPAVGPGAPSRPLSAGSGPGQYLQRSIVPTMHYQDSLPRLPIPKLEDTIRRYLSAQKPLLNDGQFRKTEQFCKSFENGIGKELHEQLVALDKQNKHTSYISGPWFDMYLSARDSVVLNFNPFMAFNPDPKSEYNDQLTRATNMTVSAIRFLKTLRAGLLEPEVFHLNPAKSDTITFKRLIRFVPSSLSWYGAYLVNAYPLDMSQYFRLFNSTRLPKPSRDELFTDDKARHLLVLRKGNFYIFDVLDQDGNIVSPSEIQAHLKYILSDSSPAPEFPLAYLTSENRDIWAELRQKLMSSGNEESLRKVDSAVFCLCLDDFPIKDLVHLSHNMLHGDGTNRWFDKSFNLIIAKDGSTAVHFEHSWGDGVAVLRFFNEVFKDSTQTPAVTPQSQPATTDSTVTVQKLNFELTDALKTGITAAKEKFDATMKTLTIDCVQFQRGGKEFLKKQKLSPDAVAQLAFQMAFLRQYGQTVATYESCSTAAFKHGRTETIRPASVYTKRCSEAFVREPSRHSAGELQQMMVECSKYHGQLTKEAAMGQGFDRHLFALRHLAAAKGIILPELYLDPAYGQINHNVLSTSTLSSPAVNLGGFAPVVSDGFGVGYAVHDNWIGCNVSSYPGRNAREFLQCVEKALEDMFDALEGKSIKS

Mus musculus [17] = experiment: Reduction in glucose level in db/db mouse at 30 mg/kgl/day, po for 12 days; assay type: functional; parameters: scale not given: the % may be the effect or the level left; conditions: dose 30 mg/kg
[18] = molecular target: T1, Carnitine O-palmitoyltransferase 1, liver isoform; experiment: Inhibition of human CPT1A
Mus musculus [19] = experiment: Reduction in food intake in C57BL/6J mouse at 250 pmol/day, icv for 4 days; assay type: functional; parameters: scale not given: the % may be the effect or the level left
Mus musculus [20] = experiment: Reduction in body weight in C57BL/6J mouse at 250 pmol/day, icv for 4 days; assay type: functional; parameters: scale not given: the % may be the effect or the level left
[21] = molecular target: T3, Carnitine O-palmitoyltransferase 1, muscle isoform (Homo sapiens, UniProt Q92523); experiment: Inhibition of human CPT1B
T3 sequence (Q92523 whole entry): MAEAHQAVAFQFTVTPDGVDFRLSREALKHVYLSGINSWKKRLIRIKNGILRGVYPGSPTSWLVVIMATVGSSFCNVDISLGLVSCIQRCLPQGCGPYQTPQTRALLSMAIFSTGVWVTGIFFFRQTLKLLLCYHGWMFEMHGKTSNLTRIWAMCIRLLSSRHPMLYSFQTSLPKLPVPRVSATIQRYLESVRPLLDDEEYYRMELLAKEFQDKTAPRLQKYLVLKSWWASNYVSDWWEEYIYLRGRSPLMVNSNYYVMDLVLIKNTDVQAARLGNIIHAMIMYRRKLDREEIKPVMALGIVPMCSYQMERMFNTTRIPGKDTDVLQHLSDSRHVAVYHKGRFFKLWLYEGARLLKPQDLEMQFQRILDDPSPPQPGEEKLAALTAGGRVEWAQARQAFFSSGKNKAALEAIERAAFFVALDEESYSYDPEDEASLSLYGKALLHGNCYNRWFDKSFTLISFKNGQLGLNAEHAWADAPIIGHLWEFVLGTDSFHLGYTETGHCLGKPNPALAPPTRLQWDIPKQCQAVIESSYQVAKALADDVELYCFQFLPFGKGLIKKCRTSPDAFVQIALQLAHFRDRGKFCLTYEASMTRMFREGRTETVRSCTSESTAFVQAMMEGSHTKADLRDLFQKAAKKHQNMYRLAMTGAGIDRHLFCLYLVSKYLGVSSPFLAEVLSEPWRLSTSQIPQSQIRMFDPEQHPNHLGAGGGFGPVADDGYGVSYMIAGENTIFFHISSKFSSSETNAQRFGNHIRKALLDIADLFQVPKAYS

Rattus norvegicus [22] = experiment: Inhibition of ketogenesis in 17 hrs fasted po dosed rat; assay type: functional
[23] = molecular target: T4, Carnitine O-palmitoyltransferase 2, mitochondrial (Rattus norvegicus, UniProt P18886); experiment: Inhibition of rat CPT2 using [3H]carnitine by radiometric assay
T4 sequence (P18886 whole entry): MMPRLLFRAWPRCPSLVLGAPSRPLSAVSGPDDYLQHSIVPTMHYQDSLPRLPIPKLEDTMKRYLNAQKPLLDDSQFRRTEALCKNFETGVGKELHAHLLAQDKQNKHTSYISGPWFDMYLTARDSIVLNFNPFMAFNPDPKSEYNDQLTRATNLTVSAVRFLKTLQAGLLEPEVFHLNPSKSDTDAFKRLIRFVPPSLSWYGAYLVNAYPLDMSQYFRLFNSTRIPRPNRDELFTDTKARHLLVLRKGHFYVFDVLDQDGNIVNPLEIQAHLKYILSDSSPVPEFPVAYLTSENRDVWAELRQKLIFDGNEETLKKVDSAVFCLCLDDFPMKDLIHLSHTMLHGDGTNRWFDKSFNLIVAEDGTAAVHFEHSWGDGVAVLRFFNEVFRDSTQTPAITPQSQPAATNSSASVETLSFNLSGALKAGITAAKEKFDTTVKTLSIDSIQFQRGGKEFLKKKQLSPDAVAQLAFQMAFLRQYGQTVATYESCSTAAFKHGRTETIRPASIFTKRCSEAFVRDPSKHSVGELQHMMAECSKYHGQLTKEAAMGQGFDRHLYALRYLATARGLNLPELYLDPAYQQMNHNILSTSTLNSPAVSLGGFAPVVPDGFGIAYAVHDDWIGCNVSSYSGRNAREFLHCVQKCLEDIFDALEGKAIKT

[24] = molecular target: T5, Carnitine O-palmitoyltransferase 1, liver isoform (Rattus norvegicus, UniProt P32198); experiment: Inhibition of rat CPT1A using [3H]carnitine by radiometric assay
T5 sequence (P32198 whole entry): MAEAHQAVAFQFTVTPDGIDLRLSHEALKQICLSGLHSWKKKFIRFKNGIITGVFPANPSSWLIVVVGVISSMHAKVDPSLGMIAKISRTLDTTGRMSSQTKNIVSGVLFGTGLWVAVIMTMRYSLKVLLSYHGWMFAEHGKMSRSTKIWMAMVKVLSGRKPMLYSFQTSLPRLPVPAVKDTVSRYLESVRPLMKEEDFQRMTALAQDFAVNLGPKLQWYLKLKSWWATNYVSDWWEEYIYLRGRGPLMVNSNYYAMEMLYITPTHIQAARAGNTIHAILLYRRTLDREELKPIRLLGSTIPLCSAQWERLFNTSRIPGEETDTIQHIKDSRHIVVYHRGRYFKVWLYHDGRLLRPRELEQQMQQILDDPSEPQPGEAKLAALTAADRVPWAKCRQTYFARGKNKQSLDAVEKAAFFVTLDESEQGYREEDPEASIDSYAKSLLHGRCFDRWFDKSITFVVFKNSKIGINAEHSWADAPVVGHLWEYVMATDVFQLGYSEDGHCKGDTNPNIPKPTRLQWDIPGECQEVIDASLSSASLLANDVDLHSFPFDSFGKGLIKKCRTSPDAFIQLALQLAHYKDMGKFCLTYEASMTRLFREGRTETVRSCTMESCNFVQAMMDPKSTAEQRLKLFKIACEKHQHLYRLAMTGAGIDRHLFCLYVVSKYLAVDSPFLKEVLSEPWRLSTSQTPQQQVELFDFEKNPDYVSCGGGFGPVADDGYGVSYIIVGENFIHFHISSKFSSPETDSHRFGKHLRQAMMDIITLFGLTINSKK

Mus musculus [25] = experiment: Inhibition of [14C]palmitate oxidation to CO2 in mouse at 0.1 mmol/kg, ip; assay type: functional
[26] = Inhibition of carnitine palmitoyltransferase in fasted rat detergent lysed liver mitochondria by DTNB based spectrophotometric assay
Mus musculus [27] = experiment: Reduction in blood glucose level STZ-treated mouse at 1 mmol/kg, po measured 6 to 12 hrs post dose; assay type: functional; parameters: scale not given: the % may be the effect or the level left

## O=C([O-])[C@@]1(CCCCCc2ccc(Cl)cc2)CO1.[Na+] [CLOMIXIR]
Rattus norvegicus [1]
  Activity: 15%

## CCCCCc1ccc(S(=O)(=O)NC2(CC(=O)[O-])CCC[N+](C)(C)C2)cc1 (stereo not drawn)
[2]
  IC50: < 1000 nM

## O=C(O)[C@@]1(CCCCCCOc2ccc([N+](=O)[O-])cc2[N+](=O)[O-])CO1
[3]
  Imax: > 60 µM
[4]
  Imax: 5 µM

## CCOC(=O)[C@@]1(CCCCCCOc2ccc(Cl)cc2)CO1 [ETOMOXIR]
[5]
  IC50: 340 nM
[6]
  IC50: 290 nM
Sus scrofa
  Activity: 126%

## CCCCCCCCCCCCS(=O)(=O)N[C@H](CC(=O)[O-])C[N+](C)(C)C
[7]
  IC50: 3400 nM
[8]
  IC50: 700 nM
Rattus norvegicus [9]
  ED50: 20 mg/kg
[10]
  Ki: 250 nM
Mus musculus [11]
  Activity: 28%

## CCOC(=O)C1(CCCCCc2ccc(Cl)cc2)CO1 (racemic)
[12]
  LD50: 275 mg/kg
Rattus norvegicus [13]
  ED50: 6 mg/kg
Rattus norvegicus [14]
  Activity: 80%

## CCCCCCOc1cccc(OCCCCNC(=O)N[C@H](CC(=O)[O-])C[N+](C)(C)C)c1
[7]
  IC50: 5440 nM
[5]
  IC50: 30 nM
[6]
  IC50: 730 nM
[8]
  IC50: 130 nM
[15]
  CMC: 0.79 mM
[16]
  IC50: 5400 nM
Mus musculus [17]
  Activity: 41%
[18]
  IC50: 1700 nM
Mus musculus [19]
  Activity: 25%
Mus musculus [20]
  Activity: 7%
[21]
  IC50: 85300 nM
Rattus norvegicus [22]
  ED50: 3.7 mg/kg

## CCCCCCCCCCCCCCCC1(O)C[N+](C)(C)CC(CC(=O)[O-])O1 (stereo in doubt; (+)-27)
[23]
  IC50: 47500 nM
[24]
  IC50: 38500 nM

## CCCCCCCCCCCCCCCC(=O)NC(CC(=O)[O-])C[N+](C)(C)C (racemic)
Mus musculus [25]
  inhibition in vivo at 100 µmol/kg: 46%
[26]
  IC50: 50 nM
Mus musculus [27]
  Activity: 45%

## CCCCCc1ccc(S(=O)(=O)NC2(CC(=O)[O-])CC[N+](C)(C)CC2)cc1
[2]
  IC50: < 1000 nM
